Results taken from ChEMBL document CHEMBL4145513, “An overview on crystal structures of InhA protein: Apo-form, in complex with its natural ligands and inhibitors” (Eur J Med Chem, 2018).

Experiments:
[1] = molecular target: T1, Enoyl-[acyl-carrier-protein] reductase [NADH] (Mycobacterium tuberculosis, UniProt P9WGR1, V203A)
[2] = molecular target: Enoyl-[acyl-carrier-protein] reductase [NADH] (Mycobacterium tuberculosis, UniProt P9WGR1, I215A); assay: biochemical
[3] = molecular target: T1, Enoyl-[acyl-carrier-protein] reductase [NADH]; remark: listed apart in the source
[4] = molecular target: T2, Enoyl-[acyl-carrier-protein] reductase [NADH] (Mycobacterium tuberculosis, UniProt P9WGR1, S94A); assay: Inhibition of Mycobacterium tuberculosis InhA S94A mutant using trans-2-decenoyl-CoA as substrate by spectrophotometric analysis
[5] = molecular target: Enoyl-[acyl-carrier-protein] reductase [NADH] (Mycobacterium tuberculosis, UniProt P9WGR1, D2A); assay: Inhibition of Mycobacterium tuberculosis InhA D2A mutant
[6] = molecular target: Enoyl-[acyl-carrier-protein] reductase [NADH] (Mycobacterium tuberculosis, UniProt P9WGR1, I21V); assay: Inhibition of Mycobacterium tuberculosis InhA I21V mutant using trans-2-decenoyl-CoA as substrate by spectrophotometric analysis
[7] = molecular target: Enoyl-[acyl-carrier-protein] reductase [NADH] (Mycobacterium tuberculosis, UniProt P9WGR1, T2A); assay: Inhibition of Mycobacterium tuberculosis InhA T2A mutant
[8] = molecular target: T2, Enoyl-[acyl-carrier-protein] reductase [NADH]; assay: Inhibition of Mycobacterium tuberculosis InhA S94A mutant
[9] = system: Mycobacterium tuberculosis; assay: Antimycobacterial activity against Mycobacterium tuberculosis harboring InhA T2A mutant; assay type: functional

In the case of `CCCCCCc1ccc(Oc2ccccc2C)c(O)c1`, the Ki [1] is reported as 427 nM, the Ki [2] is reported as 114 nM and the Ki [3] is reported as 913 nM.

`NC(=O)c1c[n+]([C@@H]2O[C@H](COP(=O)(O)OP(=O)(O)OC[C@H]3O[C@@H](n4cnc5c(N)ncnc54)[C@H](O)[C@@H]3O)[C@@H](O)[C@H]2O)ccc1C(=O)c1ccncc1` gave a Ki [4] of 5.3 nM, an IC50 [5] of 323 nM and a Ki [5] of 172 nM. It also gave a Ki [6] of 2.1 nM, an IC50 [7] of 19 nM and a Ki [7] of 5 nM. It also gave an IC50 [8] of 323 nM, a Ki [8] of 172 nM and an MIC50 [9] of 1.8 µM.
